Experimental data published in patent US20060035314A1, “Receptors and signalling proteins capable of binding meiotic acting sterols (MAS)” (priority 2000, published 2006).

Test system: Mouse Oocytes
Assay: Microinjection of antisense/sense oligonucleotides into mouse oocytes; FF-MAS-triggered resumption of meiosis (GVBD)
Assay type: cell-based
Conditions: 10 μM FF-MAS (24 hours); added 20 hours after injection of approx. 12 pg of each oligonucleotide; hypoxanthine containing medium
Text: Two antisense oligonucleotides (20 nucleotides) were utilized for microinjection: 5′-[…]-3′ and 5′-[…]-3′, complementary to the kozak sequence of the mRNA encoded by the cDNA sequence herein designated SAM1a and SAM1b, respectively, both of which are defined in SEQ ID NO: 1 and SEQ ID NO: 3, respectively, shown below. In control experiments, the corresponding sense oligonucleotides were microinjected: 5′-[…]-3′ and 5′-[…]-3′ for mRNA SAM1a and SAM1b, respectively. SAM1a antisense was co-injected with SAM1b antisense from a stock solution containing 1.25 μg/μl of each nucleotide in 10% human serum albumin (hereinafter designated HSA) plus 5 mM Tris (pH value: 7.5). SAM1a sense was co-injected with SAM1b sense from a stock solution containing 1.25 μg/μl of each nucleotide in 10% HSA plus 5 mM Tris (pH value: 7.5). Approximately 12 pg of each oligonucleotide ([…]) were injected into the cytoplasma of individual germinal vesicle (GV)-stage oocytes loaded in a droplet of alpha-MEM supplemented with 0.8% HSA and 3 mM hypoxantine under mineral oil in a 35 mm petri dish on the stage of an inverted microscope. […] The effect of FF-MAS was evaluated after 24 hours of further incubation as the number of oocytes in germinal vesicle breakdown (hereinafter designated GVBD). […]

CC(C)=CCC[C@@H](C)[C@H]1CC=C2C3=C(CC[C@@]21C)[C@@]1(C)CC[C@H](O)C(C)(C)[C@@H]1CC3 [FF-MAS, 4,4-dimethyl-5α-cholesta-8,14,24-triene-3β-ol]
GVBD/GVBD + GV: 26/29
